Source: US20220089592A1, “IMIDAZO[1,2-A]PYRIDINYL DERIVATIVES AS IRAK4 INHIBITORS” (priority 2019, published 2022)

Target: T1, IRAK4 (Homo sapiens, UniProt Q9NWZ3)
T1 sequence (Q9NWZ3 1-460): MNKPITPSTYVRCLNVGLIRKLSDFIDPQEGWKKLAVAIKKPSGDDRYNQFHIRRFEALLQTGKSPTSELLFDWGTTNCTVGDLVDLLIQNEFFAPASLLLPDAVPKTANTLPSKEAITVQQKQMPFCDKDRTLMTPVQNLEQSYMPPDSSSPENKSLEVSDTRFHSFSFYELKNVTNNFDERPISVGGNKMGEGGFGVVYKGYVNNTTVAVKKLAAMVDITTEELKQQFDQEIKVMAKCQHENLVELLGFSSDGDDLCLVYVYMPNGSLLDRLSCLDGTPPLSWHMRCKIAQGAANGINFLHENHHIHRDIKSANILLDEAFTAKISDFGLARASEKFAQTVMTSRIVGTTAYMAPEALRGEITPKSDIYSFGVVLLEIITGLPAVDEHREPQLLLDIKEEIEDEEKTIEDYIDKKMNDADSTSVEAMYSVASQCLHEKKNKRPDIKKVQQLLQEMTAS
Assay: 2-hour 1 mM ATP IRAK4 Biochemical assay (as above, but with 100 pM IRAK4 and 1 mM ATP)
Settings: IRAK4 MSD BIOCHEMICAL (1 mM ATP) IC50 (μM), 100 pM IRAK4, 2 hours
Method in brief: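 MSD electrochemiluminescence read-out: biotinylated peptide product bound to streptavidin plates, probed with anti-P-Thr rabbit antibody and Sulfo-Tag goat anti-rabbit. Kinase reaction used 1 mM ATP and 100 pM IRAK4 over 2 hours before EDTA quench.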

| SMILES | IC50 [µM] |
| --- | --- |
| CC(C)Oc1nc2nc(C34COC(C)(C3)C4)cn2cc1NC(=O)c1cccn(C(F)F)c1=O [Example 496, 1-(difluoromethyl)-N-(7-isopropoxy-2-(1-methyl-2-oxabicyclo[2.1.1]hexan-4-yl)imidazo[1,2-a]pyrimidin-6-yl)-2-oxo-1,2-dihydropyridine-3-carboxamide 2,2,2-trifluoroacetate] | 0.001 |
| COc1nc(NC(=O)c2cccc3c2OCC3(F)F)cn2cc(C3CCOCC3)nc12 [Example 454, 3,3-difluoro-N-(8-methoxy-2-(tetrahydro-2H-pyran-4-yl)imidazo[1,2-a]pyrazin-6-yl)-2,3-dihydrobenzofuran-7-carboxamide] | 0.014 |
| CCOc1nc(NC(=O)c2cccc(C)n2)cn2cc(C3CCOCC3)nc12 [Example 474, N-(8-ethoxy-2-(tetrahydro-2H-pyran-4-yl)imidazo[1,2-a]pyrazin-6-yl)-6-methylpicolinamide 2,2,2-trifluoroacetate] | 0.025 |
| CC(C)Oc1c(NC(=O)c2ccn(C)n2)cn2cc(C34COC(C)(C3)C4)nc2c1F [Example 432, N-(8-fluoro-7-isopropoxy-2-(1-methyl-2-oxabicyclo[2.1.1]hexan-4-yl)imidazo[1,2-a]pyridin-6-yl)-1-methyl-1H-pyrazole-3-carboxamide 2,2,2-trifluoroacetate] | 0.005 |
| COc1cc(F)ccc1C(=O)Nc1cn2cc(C34COC(C)(C3)C4)nc2c(OC(C)C)n1 [Example 479, 4-fluoro-N-(8-isopropoxy-2-(1-methyl-2-oxabicyclo[2.1.1]hexan-4-yl)imidazo[1,2-a]pyrazin-6-yl)-2-methoxybenzamide 2,2,2-trifluoroacetate] | 0.015 |
| CCOc1cc2nc(C3CCOCC3)cn2cc1NC(=O)c1cccc(CC)n1 [Example 217, N-(7-ethoxy-2-(tetrahydro-2H-pyran-4-yl)imidazo[1,2-a]pyridin-6-yl)-6-ethylpicolinamide] | 0.001 |
| CCOc1cc(NC(=O)c2cccc(C)n2)cn2cc([C@H]3[C@@H]4COC[C@@H]43)nc12 [Example 417, N-(2-((1R,5S,6s)-3-oxabicyclo[3.1.0]hexan-6-yl)-8-ethoxyimidazo[1,2-a]pyridin-6-yl)-6-methylpicolinamide] | 0.022 |
| CCOc1nc2nc(C34COC(C)(C3)C4)cn2cc1NC(=O)c1cccc(C(F)F)n1 [Example 344, 6-(difluoromethyl)-N-(7-ethoxy-2-(1-methyl-2-oxabicyclo[2.1.1]hexan-4-yl)imidazo[1,2-a]pyrimidin-6-yl)picolinamide] | 0.001 |
| CC12CC(c3cn4cc(NC(=O)c5cccc6c5OCC6)cc(OC(F)F)c4n3)(CO1)C2 [Example 421, N-(8-(difluoromethoxy)-2-(1-methyl-2-oxabicyclo[2.1.1]hexan-4-yl)imidazo[1,2-a]pyridin-6-yl)-2,3-dihydrobenzofuran-7-carboxamide 2,2,2-trifluoroacetate] | 0.018 |
| O=C(Nc1cn2cc(C3CCOCC3)nc2cc1OC(F)F)c1cccc(C(F)F)n1 [Example 394, N-(7-(difluoromethoxy)-2-(tetrahydro-2H-pyran-4-yl)imidazo[1,2-a]pyridin-6-yl)-6-(difluoromethyl)picolinamide] | 0.001 |
| CCOc1cc2nc(CC3CCS(=O)(=O)C3)cn2cc1NC(=O)c1cccc(C(F)F)n1 (centres unmarked) [Example 257, 6-(difluoromethyl)-N-(2-((1,1-dioxidotetrahydrothiophen-3-yl)methyl)-7-ethoxyimidazo[1,2-a]pyridin-6-yl)picolinamide] | 0.001 |
| CC(C)Oc1cc2nc(C(F)F)cn2cc1NC(=O)c1ccn(C(F)F)n1 [Example 267, 1-(difluoromethyl)-N-(2-(difluoromethyl)-7-isopropoxyimidazo[1,2-a]pyridin-6-yl)-1H-pyrazole-3-carboxamide] | 0.002 |
| CC(C)Oc1c(NC(=O)c2coc(C(F)F)n2)cn2cc(C34COC(C)(C3)C4)nc2c1F [Example 430, 2-(difluoromethyl)-N-(8-fluoro-7-isopropoxy-2-(1-methyl-2-oxabicyclo[2.1.1]hexan-4-yl)imidazo[1,2-a]pyridin-6-yl)oxazole-4-carboxamide 2,2,2-trifluoroacetate] | 0.008 |
| CC(C)Oc1cc2nc(C34CC(F)(C3)C4)cn2cc1NC(=O)c1cccc(C(F)(F)F)n1 [Example 539, N-(2-(3-fluorobicyclo[1.1.1]pentan-1-yl)-7-isopropoxyimidazo[1,2-a]pyridin-6-yl)-6-(trifluoromethyl)picolinamide 2,2,2-trifluoroacetate] | 0.002 |
| Cc1cccc(C(=O)Nc2cn3cc(C4CCOCC4)nc3cc2C(F)F)n1 [Example 315, N-(7-(difluoromethyl)-2-(tetrahydro-2H-pyran-4-yl)imidazo[1,2-a]pyridin-6-yl)-6-methylpicolinamide] | 0.021 |
| CC(C)Oc1cc2nc(C3CCOCC3)cn2cc1NC(=O)c1cc2ccccn2n1 [Example 381, N-(7-isopropoxy-2-(tetrahydro-2H-pyran-4-yl)imidazo[1,2-a]pyridin-6-yl)pyrazolo[1,5-a]pyridine-2-carboxamide 2,2,2-trifluoroacetate] | 0.004 |
| CC12CC(c3cn4cc(NC(=O)c5cccc6ccnn56)cc(OC(F)F)c4n3)(CO1)C2 [Example 422, N-(8-(difluoromethoxy)-2-(1-methyl-2-oxabicyclo[2.1.1]hexan-4-yl)imidazo[1,2-a]pyridin-6-yl)pyrazolo[1,5-a]pyridine-7-carboxamide 2,2,2-trifluoroacetate] | 0.012 |
| CC(C)Oc1nc(NC(=O)c2cccc(C(F)F)n2)cn2cc(C3CCOCC3)nc12 [Example 339, 6-(difluoromethyl)-N-(8-isopropoxy-2-(tetrahydro-2H-pyran-4-yl)imidazo[1,2-a]pyrazin-6-yl)picolinamide] | 0.016 |
| COc1ccccc1C(=O)Nc1cn2cc(C34COC(C)(C3)C4)nc2c(F)c1OC(C)C [Example 424, N-(8-fluoro-7-isopropoxy-2-(1-methyl-2-oxabicyclo[2.1.1]hexan-4-yl)imidazo[1,2-a]pyridin-6-yl)-2-methoxybenzamide 2,2,2-trifluoroacetate] | 0.017 |
| O=C(Nc1cn2cc(C3CCOCC3)nc2cc1OCC1CC1(F)F)c1cccc(C(F)F)n1 (centres unmarked) [Example 196, N-(7-((2,2-difluorocyclopropyl)methoxy)-2-(tetrahydro-2H-pyran-4-yl)imidazo[1,2-a]pyridin-6-yl)-6-(difluoromethyl)picolinamide] | 0.001 |
| COc1nc(NC(=O)c2cccc(C(F)F)n2)cn2cc(C34CCOC(C)(C3)C4)nc12 [Example 555, 6-(difluoromethyl)-N-(8-methoxy-2-(1-methyl-2-oxabicyclo[3.1.1]heptan-5-yl)imidazo[1,2-a]pyrazin-6-yl)picolinamide] | 0.007 |
| O=C(Nc1cn2cc(C3CCOCC3)nc2c(OCC(F)(F)F)n1)c1cccc(C(F)F)n1 [Example 303, 6-(difluoromethyl)-N-(2-(tetrahydro-2H-pyran-4-yl)-8-(2,2,2-trifluoroethoxy)imidazo[1,2-a]pyrazin-6-yl)picolinamide] | 0.038 |
| CC(C)Oc1c(NC(=O)c2cccc3ccnn23)cn2cc(C34COC(C)(C3)C4)nc2c1F [Example 548, N-(8-fluoro-7-isopropoxy-2-(1-methyl-2-oxabicyclo[2.1.1]hexan-4-yl)imidazo[1,2-a]pyridin-6-yl)pyrazolo[1,5-a]pyridine-7-carboxamide 2,2,2-trifluoroacetate] | 0.001 |
| COc1cc(NC(=O)c2cccc(C(F)F)n2)cn2cc(C3CCCOC3)nc12 (single isomer, unassigned) [Example 270, 6-(difluoromethyl)-N-(8-methoxy-2-(tetrahydro-2H-pyran-3-yl)imidazo[1,2-a]pyridin-6-yl)picolinamide] | 0.003 |
| Cc1cc(NC(=O)c2cccc3ccnn23)cn2cc(C34COC(C)(C3)C4)nc12 [Example 408, N-(8-methyl-2-(1-methyl-2-oxabicyclo[2.1.1]hexan-4-yl)imidazo[1,2-a]pyridin-6-yl)pyrazolo[1,5-a]pyridine-7-carboxamide 2,2,2-trifluoroacetate] | 0.025 |
| COCC(C)(C)c1cn2cc(NC(=O)c3cccc(C(F)F)n3)c(OC(C)C)cc2n1 [Example 527, 6-(difluoromethyl)-N-(7-isopropoxy-2-(1-methoxy-2-methylpropan-2-yl)imidazo[1,2-a]pyridin-6-yl)picolinamide] | 0.003 |
| CC(C)Oc1cc2nc(C3CCOC3)cn2cc1NC(=O)c1cccc(C(F)F)n1 (centres unmarked) [Example 530, 6-(difluoromethyl)-N-(7-isopropoxy-2-(tetrahydrofuran-3-yl)imidazo[1,2-a]pyridin-6-yl)picolinamide 2,2,2-trifluoroacetate] | 0.045 |
| COc1ccccc1C(=O)Nc1cn2cc(C34COC(CF)(C3)C4)nc2c(OC(C)C)n1 [Example 483, N-(2-(1-(fluoromethyl)-2-oxabicyclo[2.1.1]hexan-4-yl)-8-isopropoxyimidazo[1,2-a]pyrazin-6-yl)-2-methoxybenzamide 2,2,2-trifluoroacetate] | 0.022 |
| COc1c(F)cccc1C(=O)Nc1cn2cc(Cl)nc2cc1OC(C)C [Example 402, N-(2-chloro-7-isopropoxyimidazo[1,2-a]pyridin-6-yl)-3-fluoro-2-methoxybenzamide 2,2,2-trifluoroacetate] | 0.157 |
